These results are taken from article PMC3769965 (Biochemistry, 2013).

This experiment concerns the target Eis_Msm (Mycolicibacterium smegmatis, UniProt A0QY29). As to the kind of experiment: DTNB initial rate. The experiment is classed as biochemical. Conditions: AcCoA, 50 mM Tris-HCl pH 8.0.

Consider `NC[C@@H]1O[C@H](O[C@H]2[C@@H](O)[C@H](O[C@@H]3[C@@H](O)[C@H](N)C[C@H](N)[C@H]3O[C@H]3O[C@H](CO)[C@@H](O)[C@H](O)[C@H]3N)O[C@@H]2CO)[C@H](N)[C@@H](O)[C@@H]1O` [PAR, paromomycin], for which the “DTNB initial rate (CoA release); LCMS of tri-acetylation” value is “with Eis_Mtb, Eis_Msm, and all Eis_Mtb-mutants, PAR was always tri-acetylated”.
